Measured values reported in patent US9023857B2, “Substituted 6-(2-aminobenzylamino)purine derivatives, their use as medicaments and preparations containing these compounds” (Univerzita Palackeho V Olomouci, priority 2009, dated 2015).

What was measured:
[1] = test system: HIV promoter integrated into cellular DNA (H1299-HIV cells); assay: β-galactosidase expression from pHIV-lacZ incorporated to cellular genome (H1299-HIV); conditions: HIV promoter integrated into cellular DNA (FIG. 11)
[2] = In vitro cytotoxic activity (Calcein AM, 72 hours), BJ; conditions: human, BJ normal fibroblasts

CCC(CO)Nc1nc(NCc2ccccc2N)c2ncn(C(C)C)c2n1 (centres unmarked) [Compound 105, 2-({6-[(2-aminobenzyl)amino]-9-isopropyl-9H-purin-2-yl}amino)butan-1-ol]
increase of reporter readout [1]: 4 times | IC50 at 72 h [2]: > 167 µM
